{"source": "patent US11530388B2", "about": "“Methods of engineering human induced pluripotent stem cells to produce liver tissue” (University of Pittsburgh—Of the Commonwealth System of …, priority 2017, dated 2022)", "key": {"[1]": {"tested_on": "pMSCV-F-del Casp9-IRES-GFP transfected HEK293 cells (iCasp9)", "assay": "Caspase 3/7 Assay after AP1903 stimulation of iCasp9-transfected cells", "type": "cell-based, human", "conditions": "compared to ethanol stimulated cells, 0, 0.1, 1, 10 nmol/l tested, 24 h end point", "excerpt": "Because repopulated rat livers with human iPS-Heps can be reconstituted with both rodent cells and human cells, systems to maximize the human component to 100% of the livers and to purify human cells after perfusion/isolation of livers are beneficial. Suicide systems can be designed to potentiate these processes by efficiently inducing apoptosis in transduce cells. An inducible caspase-9 (iCasp9), encoded by a suicide gene engineered from human caspase-9, was incorporated. […]\nHEK293 cells are transfected with pMSCV-F-del-Casp9_IRES-GFP (Addgene). • To assess transfection efficiency, cells are co-transfected with a TagRFP control plasmid ( 1/10 of total amount of DNA). • On day 3 transfected cells and negative control are monitored, counted and seeded (1E04 cells/96-well) for Caspase 3/7 Assay (Promega; G8091) Per Transfection/Negative Control cells were seeded as follows: • Per concentration small molecule (chemical inducer of dimerization) AP1903 (ApexBio) two wells, the same amount for negative control. […] T=0 h was measured immediately and T=24 h is measured as end point. (FIG. 13) • iCasp9-IRES-GFP construct is cloned with the rat albumin promoter pEAlb123. • iCasp9 expression (mRNA) is quantified in H4-II-E-C3 by qRT-PCR. […]"}, "[2]": {"tested_on": "Untransfected HEK293 cells", "assay": "Caspase 3/7 Assay after AP1903 stimulation of untransfected control cells", "type": "cell-based, human", "conditions": "untransfected HEK293 cells treated with AP1903", "procedure": "HEK293 cells are transfected with pMSCV-F-del-Casp9_IRES-GFP (Addgene). • To assess transfection efficiency, cells are co-transfected with a TagRFP control plasmid ( 1/10 of total amount of DNA). • On day 3 transfected cells and negative control are monitored, counted and seeded (1E04 cells/96-well) for Caspase 3/7 Assay (Promega; G8091) Per Transfection/Negative Control cells were seeded as follows: • Per concentration small molecule (chemical inducer of dimerization) AP1903 (ApexBio) two wells, the same amount for negative control. For shuttle control, also wells per concentration are seeded. • On day 4, stimulation with AP1903 starts (0; 0,1; 1; 10 nmol/1). Shuttle control includes cells treated with ethanol only. T=0 h was measured immediately and T=24 h is measured as end point. (FIG. 13) • iCasp9-IRES-GFP construct is cloned with the rat albumin promoter pEAlb123. • iCasp9 expression (mRNA) is quantified in H4-II-E-C3 by qRT-PCR. Cells are transfected with plasmids pEAlb123-iCasp9-IRES-GFP and pcDNA3-CMV-eGFP (positive control). • Cells are harvested and RNA is isolated. iCASP9 and eGFP-specific PCR primers are used to measure expression (FIG. 14)."}}}
{"smiles": "CC[C@@H](C(=O)N1CCCC[C@H]1C(=O)O[C@@H](CCc1ccc(OC)c(OC)c1)c1cccc(OCC(=O)NCCNC(=O)COc2cccc([C@@H](CCc3ccc(OC)c(OC)c3)OC(=O)[C@@H]3CCCCN3C(=O)[C@H](CC)c3cc(OC)c(OC)c(OC)c3)c2)c1)c1cc(OC)c(OC)c(OC)c1", "note": "[AP1903]", "values": [{"measurement": "AP1903 concentration giving maximum effect in Caspase 3/7 Assay", "setting": "[1]", "result": 1, "unit": "nmol/L"}, {"measurement": "effect of AP1903 in Caspase 3/7 Assay", "setting": "[2]", "result": "did not show any effect"}]}
